Fluorescence data for 42 compounds are collected here from ChEMBL document CHEMBL1134045, “Inhibition of BCRP-mediated drug efflux by fumitremorgin-type indolyl diketopiperazines” (Bioorg Med Chem Lett, 2001).

The structures appear in SMILES notation.

The subject of one series is AIK-T8. Briefly: Ability to inhibit […] activity at 2.5 uM and 200 ng/ml PSC833 in a mitoxantrone accumulation assay on T8 human cell line. In kind it is ADME, cell-based. To be noted: aik-t8, 2.5 µM.
For a further series, the system named is T6400. Briefly: Relative cellular accumulation of mitoxantrone determined with the compound at 2.5 uM and mitoxantrone at 10 uM on T6400 mouse cell line. The series is classed as functional.

On to `CC(C)(C)OC(=O)CCC1NC(=O)[C@@H]2Cc3c([nH]c4ccccc34)C(c3ccccc3)N2C1=O` (stereo partly drawn), for which the Fluorescence was found to be 313% with AIK-T8 and 100% with T6400. For `CCCCCC1c2[nH]c3ccccc3c2C[C@H]2C(=O)NC(Cc3ccccc3)C(=O)N12` (stereo partly drawn), in that order: 514% and 199%. For the compound `CCCCCC1c2[nH]c3ccccc3c2C[C@H]2C(=O)NC(Cc3c[nH]c4ccccc34)C(=O)N12` (stereo partly drawn), the Fluorescence with AIK-T8 came out at 601%; in the series on T6400, 242%. In the same order, the values of `CC(C)C1c2[nH]c3ccccc3c2C[C@H]2C(=O)NC(CCCCNC(=O)OC(C)(C)C)C(=O)N12` (stereo partly drawn) are 452% and 133%.

As to `CC(C)C1c2[nH]c3ccccc3c2C[C@H]2C(=O)NC(Cc3c[nH]c4ccccc34)C(=O)N12` (stereo partly drawn), the Fluorescence was determined as 310% in the series with AIK-T8 and 96% in the series with T6400.

For the compound `O=C1NC(Cc2ccccc2)C(=O)N2C(C3CCCCC3)c3[nH]c4ccccc4c3C[C@@H]12` (stereo partly drawn), in the series on T6400, the Fluorescence was found to be 91%.

Take `CCC1c2[nH]c3ccccc3c2C[C@H]2C(=O)NC(CCCCNC(=O)OC(C)(C)C)C(=O)N12` (stereo partly drawn): the Fluorescence in the series on AIK-T8 came out at 313%; in the series with T6400 it was 74%. Take `CC(C)(C)OC(=O)NCCCCC1NC(=O)[C@@H]2Cc3c([nH]c4ccccc34)C(C3CCCCC3)N2C1=O` (stereo partly drawn): the Fluorescence in the series with AIK-T8 was 629%; in the series with T6400, 278%. In the same order, the values of `CCCCCC1c2[nH]c3ccccc3c2C[C@H]2C(=O)NC(CCC(=O)OC(C)(C)C)C(=O)N12` (stereo partly drawn) are 592% and 283%.

Consider `CC(C)C1c2[nH]c3ccccc3c2C[C@H]2C(=O)NC(Cc3ccccc3)C(=O)N12` (stereo partly drawn), for which the Fluorescence came to 359% with AIK-T8 and 104% in the series on T6400. In the case of `CC(C)C1c2[nH]c3ccccc3c2C[C@H]2C(=O)NC(CCC(=O)OC(C)(C)C)C(=O)N12` (stereo partly drawn), the Fluorescence in the series with AIK-T8 came to 381%; in the series on T6400, 149%. In the same order, the values of `CC(C)(C)OC(=O)NCCCCC1NC(=O)[C@@H]2Cc3c([nH]c4ccccc34)C(c3ccccc3)N2C1=O` (stereo partly drawn) are 305% and 85%.

On to `CC(C)(C)OC(=O)CCC1NC(=O)[C@@H]2Cc3c([nH]c4ccccc34)C(C3CCCCC3)N2C1=O` (stereo partly drawn), for which the Fluorescence in the series with AIK-T8 stood at 638%; in the series with T6400, 252%.

Regarding `CC(C)(C)OCC1NC(=O)[C@@H]2Cc3c([nH]c4ccccc34)C(C3CCCCC3)N2C1=O` (stereo partly drawn), the results for the Fluorescence with AIK-T8 and in the series on T6400 were 672% and 276%, respectively. For `CCC1c2[nH]c3ccccc3c2C[C@H]2C(=O)NC(Cc3ccccc3)C(=O)N12` (stereo partly drawn), in that order: 228% and 63%. For `CCCCCC1c2[nH]c3ccccc3c2C[C@H]2C(=O)NC(N3CCCC3)C(=O)N12` (stereo partly drawn), in that order: 370% and 119%. In the same order, the values of `CC(C)CC1c2[nH]c3ccccc3c2C[C@H]2C(=O)NC(CCC(=O)OC(C)(C)C)C(=O)N12` (stereo partly drawn) are 711% and 348%. Turning to `CC(C)CC1c2[nH]c3ccccc3c2C[C@H]2C(=O)NC(Cc3c[nH]c4ccccc34)C(=O)N12` (stereo partly drawn), the Fluorescence with AIK-T8 worked out at 535%; with T6400 it was 279%. As for `CCC1c2[nH]c3ccccc3c2C[C@H]2C(=O)NC(Cc3c[nH]c4ccccc34)C(=O)N12` (stereo partly drawn), the values for the Fluorescence in the series with AIK-T8 and in the series with T6400 were 354% and 96%, respectively.

In the case of `CCCCCC1c2[nH]c3ccccc3c2C[C@H]2C(=O)NC(CCCCNC(=O)OC(C)(C)C)C(=O)N12` (stereo partly drawn), the Fluorescence came out at 599% in the series on AIK-T8 and 302% with T6400. For `CC(C)CC1c2[nH]c3ccccc3c2C[C@H]2C(=O)NC(CCCCNC(=O)OC(C)(C)C)C(=O)N12` (stereo partly drawn), in that order: 649% and 305%.

As for `CC(C)C1c2[nH]c3ccccc3c2C[C@H]2C(=O)NC(COC(C)(C)C)C(=O)N12` (stereo partly drawn), the Fluorescence with AIK-T8 was found to be 334%; with T6400 it was 93%. In the same order, the values of `CC(C)CC1c2[nH]c3ccccc3c2C[C@H]2C(=O)NC(N3CCCC3)C(=O)N12` (stereo partly drawn) are 187% and 56%.

Consider `CCCCCC1c2[nH]c3ccccc3c2C[C@H]2C(=O)NC(C)C(=O)N12` (stereo partly drawn), for which the figures for the Fluorescence with AIK-T8 and in the series on T6400 were 436% and 175%, respectively. For `O=C1NC(Cc2c[nH]c3ccccc23)C(=O)N2C(C3CCCCC3)c3[nH]c4ccccc4c3C[C@@H]12` (stereo partly drawn), the values for the Fluorescence in the series with AIK-T8 and in the series on T6400 were 410% and 158%, respectively. As to `CC(C)C1c2[nH]c3ccccc3c2C[C@H]2C(=O)NC(N3CCCC3)C(=O)N12` (stereo partly drawn), the values for the Fluorescence in the series on AIK-T8 and with T6400 were 136% and 45%, respectively. In the same order, the values of `O=C1NC(N2CCCC2)C(=O)N2C(c3ccccc3)c3[nH]c4ccccc4c3C[C@@H]12` (stereo partly drawn) are 176% and 54%.

For the compound `O=C1NC(N2CCCC2)C(=O)N2C(C3CCCCC3)c3[nH]c4ccccc4c3C[C@@H]12` (stereo partly drawn), the Fluorescence in the series on AIK-T8 is 313%; in the series on T6400, 85%. In the case of `CCC1c2[nH]c3ccccc3c2C[C@H]2C(=O)NC(C)C(=O)N12` (stereo partly drawn), the Fluorescence amounted to 114% with AIK-T8 and 43% with T6400. In the same order, the values of `CCC1c2[nH]c3ccccc3c2C[C@H]2C(=O)NC(CCC(=O)OC(C)(C)C)C(=O)N12` (stereo partly drawn) are 313% and 80%. In the same order, the values of `CC1NC(=O)[C@@H]2Cc3c([nH]c4ccccc34)C(C(C)C)N2C1=O` (stereo partly drawn) are 156% and 49%. For `CCCCCC1c2[nH]c3ccccc3c2C[C@H]2C(=O)NC(COC(C)(C)C)C(=O)N12` (stereo partly drawn), in that order: 607% and 275%. Turning to `CCC1c2[nH]c3ccccc3c2C[C@H]2C(=O)NC(N3CCCC3)C(=O)N12` (stereo partly drawn), the figures for the Fluorescence in the series on AIK-T8 and in the series on T6400 were 119% and 42%, respectively. For the compound `CC1NC(=O)[C@@H]2Cc3c([nH]c4ccccc34)C(c3ccccc3)N2C1=O` (stereo partly drawn), the Fluorescence in the series with AIK-T8 is 181%; with T6400 it was 53%.

Turning to `CC(C)(C)OCC1NC(=O)[C@@H]2Cc3c([nH]c4ccccc34)C(c3ccccc3)N2C1=O` (stereo partly drawn), the Fluorescence in the series on AIK-T8 was determined as 339%; in the series on T6400, 106%. Turning to `O=C1NC(Cc2c[nH]c3ccccc23)C(=O)N2C(c3ccccc3)c3[nH]c4ccccc4c3C[C@@H]12` (stereo partly drawn), the Fluorescence in the series on AIK-T8 was found to be 376%; with T6400 it was 125%. On to `CC(C)CC1c2[nH]c3ccccc3c2C[C@H]2C(=O)NC(C)C(=O)N12` (stereo partly drawn), for which the Fluorescence with AIK-T8 came out at 333%; in the series with T6400, 80%. In the same order, the values of `CC(C)CC1c2[nH]c3ccccc3c2C[C@H]2C(=O)NC(Cc3ccccc3)C(=O)N12` (stereo partly drawn) are 431% and 191%. In the same order, the values of `CC1NC(=O)[C@@H]2Cc3c([nH]c4ccccc34)C(C3CCCCC3)N2C1=O` (stereo partly drawn) are 268% and 74%. In the same order, the values of `CCC1c2[nH]c3ccccc3c2C[C@H]2C(=O)NC(COC(C)(C)C)C(=O)N12` (stereo partly drawn) are 225% and 71%. With `CC(C)CC1c2[nH]c3ccccc3c2C[C@H]2C(=O)NC(COC(C)(C)C)C(=O)N12` (stereo partly drawn), the Fluorescence in the series on AIK-T8 is 522%; with T6400, 216%. In the same order, the values of `O=C1NC(Cc2ccccc2)C(=O)N2C(c3ccccc3)c3[nH]c4ccccc4c3C[C@@H]12` (stereo partly drawn) are 376% and 112%.
